Test results taken from PMC9597602, “Metal Complexes as Antifungals? From a Crowd-Sourced Compound Library to the First In Vivo Experiments” (JACS Au, 2022).
Read-outs that look alike come from different tables or passages of the source.

Tests used:
[1] = system: Candida albicans ATCC 90028 NCCLS11; test: Antifungal MIC assay; format: cell-based; conditions: for MIC Candida albicans ATCC 90028 / MIC50 Candida albicans ATCC 90028: extended panel; for MIC Candida albicans ATCC 90028: second batch, ≥80 or ≥50% inhibition; for MIC50 Candida albicans ATCC 90028: 50% inhibition, MIC score 2
Summary of the method: (§1)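 Colonies from 3-day YPD plates (30 °C) were suspended, diluted into YNB and added to compound plates at a final density of 2.5 × 10^3 CFU/mL. After 36 h at 35 °C without agitation, growth inhibition of ≥80% defined the MIC. Two technical replicates, 2–4 independent runs.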

[2] = system: human red blood cells; format: cell-based
Summary of the method: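 Washed human erythrocytes at 0.5 × 10^8 cells/mL incubated with compound, then centrifuged. Haemolysis read as supernatant OD405, normalised to untreated cells (0%) and 1% Triton X-100 (100%), with melittin as internal plate control.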

[3] = system: Cryptococcus neoformans H99 ATCC 208821 type strain; test: Antifungal MIC assay; format: cell-based; conditions: for MIC50 Cryptococcus neoformans ATCC 208821: 50% inhibition, MIC score 2
Summary of the method: as §1

[4] = system: G. mellonella larvae; test: Galleria mellonella in vivo toxicity assay; conditions: 10 μL of the highest concentration injected, monitored 6 days
Experimental: Based on criteria of overall antifungal activity, cytotoxicity, and hemolysis as well as compound availability, we selected compounds Co1, Ag2, Eu1, Ir1, Pt1, Pt2, Pt4, Pt5, Au1, Au2, and Au4 to conduct a preliminary in vivo toxicity assay. […] The compounds were dissolved in DMSO and diluted to the highest possible final concentration (Table 3). The larvae were then monitored for 6 days for survival and health using the G. mellonella Health Index Scoring System.[111] […] For the other compounds, no detrimental effects could be observed in the larvae over the monitoring period. […] Nevertheless, factors such as the metabolism, excretion, and/or accumulation of the various metal complexes and their metabolites will still need to be studied more rigorously in rodent models if they are to be advanced into the preclinical pipeline.
The toxicity of compounds was tested in vivo using the G. mellonella model using our previously described methods,[61] Briefly, G. mellonella larvae were reared in a controlled environmental room at Macquarie University, Sydney, Australia, at 30 °C and 65% humidity with a 12-h light/dark cycle. Larvae (200–250 mg) were individually injected with 10 μL of chemical into the last right pro-leg using a 100 μL syringe (Hamilton Ltd.). Each compound was dissolved in DMSO at the maximum concentration given in Table 3 and also diluted in water to final concentrations of 100, 10, and 1 μM. We injected five larvae in triplicate for each of the four dilutions for each compound. Larvae injected with different dilutions of DMSO (10^–1, 10^–2, and 10^–3) were included as negative controls. Following injection, the larvae were incubated at 30 °C and monitored every 24 h for 6 days. Larval performance was assessed according to the G. mellonella Health Index Scoring System.[111] The experiments were repeated over three separate days for biological triplicates.

[5] = system: Cryptococcus deuterogattii CBS7750 VGII; Serotype B; test: Antifungal MIC assay, extended panel; format: cell-based; conditions: extended panel, second batch; ≥80 or ≥50% inhibition
Summary of the method: as §1

[6] = system: Cryptococcus deuterogattii ATCC 32609 VGII; test: Antifungal MIC assay, extended panel; format: cell-based; conditions: extended panel, second batch; ≥80 or ≥50% inhibition
[7] = system: Candida glabrata ATCC 90030 NCCLS 84; test: Antifungal MIC assay, extended panel; format: cell-based; conditions: extended panel, second batch; ≥80 or ≥50% inhibition
Summary of the method: as §1

[8] = system: Candida tropicalis ATCC 750; test: Antifungal MIC assay, extended panel; format: cell-based; conditions: extended panel, second batch; ≥80 or ≥50% inhibition
Summary of the method: as §1

[9] = system: Candida glabrata ATCC 90030 NCCLS 84; test: Antifungal MIC assay, extended panel; format: cell-based; conditions: extended panel; 50% inhibition, MIC score 2
[10] = system: Cryptococcus deuterogattii ATCC 32609 VGII; test: Antifungal MIC assay, extended panel; format: cell-based; conditions: extended panel; 50% inhibition, MIC score 2
[11] = system: Cryptococcus deuterogattii CBS7750 VGII; Serotype B; test: Antifungal MIC assay, extended panel; format: cell-based; conditions: extended panel; 50% inhibition, MIC score 2
[12] = system: Candida tropicalis ATCC 750; test: Antifungal MIC assay, extended panel; format: cell-based; conditions: extended panel; 50% inhibition, MIC score 2
[13] = system: HEK-293 human embryonic kidney cells ATCC CRL-1573
Experimental: The cells were incubated together with the compounds for 20 h at 37 °C in 5% CO2. […] Tamoxifen (Sigma T5648) was used as internal control on each plate.

[14] = system: Candida auris CBS12373 KCTC 17810; test: Antifungal MIC assay, extended panel; format: cell-based; conditions: extended panel; for MIC Candida auris CBS12373: second batch, ≥80 or ≥50% inhibition; for MIC50 Candida auris CBS12373: 50% inhibition, MIC score 2
Summary of the method: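 Yeast was grown for 3 days at 30 °C on YPD agar. Five colonies were suspended to 1 × 10^6 to 5 × 10^6 CFU/mL, checked by OD530, diluted in YNB medium, and dispensed onto compound-loaded 384-well NBS plates at 2.5 × 10^3 CFU/mL in 50 μL. Plates were covered and incubated without shaking at 35 °C for 36 h to determine MIC.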

[15] = system: Candida auris CBS10913 JCM 15448; test: Antifungal MIC assay, extended panel; format: cell-based; conditions: extended panel; for MIC50 Candida auris CBS10913: 50% inhibition, MIC score 2
Summary of the method: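 Yeast strains were grown on YPD agar at 30 °C for 3 days. Five colonies were suspended to 1 × 10^6 to 5 × 10^6 CFU/mL (by OD530), diluted in YNB medium, and dispensed into compound-containing 384-well NBS plates to 2.5 × 10^3 CFU/mL in 50 μL. Covered plates were held at 35 °C for 36 h without shaking, and MIC was determined by broth dilution.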

[16] = system: Escherichia coli ATCC 25922 FDA control strain; test: CO-ADD antibacterial MIC assay; format: cell-based; conditions: initial CO-ADD dose-response screening; ≥80% growth inhibition
Summary of the method: (§2)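 CAMHB broth microdilution; inoculum 5 × 10^5 CFU/mL from mid-log culture; 37 °C 18 h static; OD600 read-out; MIC at ≥80% inhibition; colistin (Gram-negative) and vancomycin (Gram-positive) internal controls.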

[17] = system: Acinetobacter baumannii ATCC 19606 type strain; test: CO-ADD antibacterial MIC assay; format: cell-based; conditions: initial CO-ADD dose-response screening; ≥80% growth inhibition
Summary of the method: as §2

[18] = system: Pseudomonas aeruginosa ATCC 27853 QC control strain; test: CO-ADD antibacterial MIC assay; format: cell-based; conditions: initial CO-ADD dose-response screening; ≥80% growth inhibition
Summary of the method: as §2

[19] = system: methicillin-resistant Staphylococcus aureus ATCC 43300; test: CO-ADD antibacterial MIC assay; format: cell-based; conditions: initial CO-ADD dose-response screening; ≥80% growth inhibition
Summary of the method: as §2

[20] = ranges obtained upon retesting, new batch
[21] = read-out: HEK293 CC50, ranges obtained upon retesting, new batch
[22] = initial CO-ADD dose-response screening, ≥80% growth inhibition

SMILES	MIC Candida albicans ATCC 90028 [1]	MIC50 Candida albicans ATCC 90028 [1]	RBC HC10 [2, 20]	MIC50 Cryptococcus neoformans ATCC 208821 ([3]; extended panel)	MIC Cryptococcus deuterogattii ATCC 32609 [6]	MIC Candida glabrata ATCC 90030 [7]	MIC Candida tropicalis ATCC 750 [8]	MIC50 Candida glabrata ATCC 90030 [9]	MIC50 Cryptococcus deuterogattii ATCC 32609 [10]	MIC50 Cryptococcus deuterogattii CBS7750 [11]	MIC50 Candida tropicalis ATCC 750 [12]	CC50 [13, 21]	MIC Candida auris CBS12373 [14]	MIC50 Candida auris CBS12373 [14]	MIC50 Candida auris CBS10913 [15]	other results
c1cnc([S][Au][PH](c2ccco2)(c2ccco2)c2ccco2)nc1 [Au1]	0.049 to 0.391 µM	0.049 to 0.391 µM	90 to 200 µM	0.098 to 0.195 µM	0.098 to 0.391 µM	0.098 to 0.781 µM	0.049 to 0.391 µM	0.098 to 0.391 µM	0.024 to 0.049 µM	0.024 to 0.098 µM	0.049 to 0.391 µM	0.1 to 0.6 µM	0.098 to 0.391 µM	0.098 to 0.391 µM	0.098 to 0.195 µM	MIC Cryptococcus neoformans ATCC 208821 ([3]; extended panel, second batch, ≥80 or ≥50% inhibition): 0.098 to 0.195 µM; toxicity [4]: nontoxic; MIC Cryptococcus deuterogattii CBS7750 [5]: 0.024 to 0.391 µM; HEK CC50 ([13]; initial CO-ADD screening, 20 h): >32 µg/mL; MIC ([15]; second batch, ≥80 or ≥50% inhibition, read-out: MIC* Candida auris CBS10913): 0.098 µM
CS(=O)(=O)[O][Pd][c]1ccccc1-c1ccccc1N.CS(=O)(=O)[O][Pd][c]1ccccc1-c1ccccc1N [Pd2]	0.05 to 0.2 µM	0.049 to 0.195 µM	0.2 to 3 µM	≤0.006 to 0.024 µM	0.024 to 0.049 µM	0.049 to 0.195 µM	0.195 to 0.391 µM	0.012 to 0.195 µM	0.024 to 0.098 µM	≤ 0.006 µM	0.195 to 0.391 µM	38 to 53 µM	0.024 to 0.049 µM	0.024 to 0.049 µM	0.024 to 0.098 µM	MIC Ca [1, 22]: 1.25 µM; RBC HC10 ([2]; initial CO-ADD screening, 1 h, 10% hemolysis): >20 µM; MIC ([3]; extended panel, second batch, ≥80 or ≥50% inhibition, read-out: MIC* Cryptococcus neoformans ATCC 208821): 0.024 µM; MIC Cn [3, 22]: 0.31 µM; MIC [5]: 0.098 µM; CC50 ([13]; read-out: HEK CC50, initial CO-ADD screening, 20 h): > 20 µM; MIC Candida auris CBS10913 ([15]; second batch, ≥80 or ≥50% inhibition): 0.024 to 0.098 µM; MIC Ec [16]: >20 µM; MIC Ab [17]: >20 µM; MIC Pa [18]: >20 µM; MIC MRSA (Sa) [19]: >20 µM
